# Patent US20250270648A1, “MOLECULAR SIGNATURE FOR ASSESSING THE RESPONSIVENESS OF CANCER TO MITOCHONDRIA-TARGETED ANTIOXIDANTS” (UNIVERSITÉ CATHOLIQUE DE LOUVAIN, priority 2021, published 2025)
# How the values were obtained:
# [1] = tested on: MCF10A normal breast epithelial cells; experiment: Mitochondrial superoxide, EPR with MitoTEMPO-H ±PEG-SOD2; format: cell-based, human; conditions: MitoQ 100 nM, 48 h
# Protocol: Mitochondrial superoxide levels were determined using electron paramagnetic resonance (EPR) with MitoTEMPO-H as a specific mitochondrial superoxide probe ±PEG-SOD2 to specifically assign signals to mitochondrial superoxide. EPR measurements were performed using a Bruker EMX-Plus spectrometer, operating in X-band (9.85 GHz) and equipped with a PremiumX ultra low noise microwave bridge and a SHQ high sensitivity resonator. Typical settings were: microwave power: 20 mW; attenuation: 10 dB; modulation frequency: 100 kHz; modulation amplitude: 0.1 mT; time constant: 20.48 ms; conversion time: 22.58 ms; sweep width: 0.15 mT. Briefly, MDA-MB-231, SkBr3, MCF10A or MDA-MB-436 cells were treated ±MitoQ for 48 h, harvested and resuspended in PBS at 2×10^6 cells/mL. The experimental mixture was prepared with cell suspension, 1 mM DTPA and 150 μM MitoTEMPO-H. It was then aspirated into a gas-permeable polytetrafluoroethylene (PTFE) tubing that was placed in a quartz tube opened at both ends. The tube was directly inserted inside the EPR cavity that was heated at 310° K with air during all experiments. […] Net superoxide production was calculated by subtracting the double integration values of the […] with PEG-SOD2 to the control value at timepoint 15 min.
# [2] = tested on: MDA-MB-231 primary tumors in mice; experiment: RT-qPCR of resected primary tumors; format: in vivo, mouse; conditions: MitoQ 20 mg/kg daily oral
# Protocol: (§1) Total mRNA from MDA-MB-231, SkBr3 and MDA-MB-436 cells treated ±MitoQ for 48 h was extracted using the NucleoSpin RNA Kit (Macherey-Nagel®). Total mRNA from primary tumors was extracted with Tri reagent (Molecular Research Center®, Cat #TR118). mRNAs were quantified by the Qubit BR dsRNA assay kit (Thermo Fisher Scientific®), and mRNA integrity was evaluated on an Agilent® 2100 Bioanalyzer with the RNA 6000 nano kit (Agilent®). It was reverse transcribed in complementary DNA using the High-Capacity cDNA Reverse Transcription Kit (Applied Biosystems®, cat #4368814) according to manufacturer's protocol. Complementary DNA (500 ng) was amplified by real time quantitative PCR (RT-qPCR) using the low ROX SYBR Master Mix dTTP Blue (Eurogentec®) and primers listed in Table 5 and Table 6 on a ViiA 7 Real-Time PCR System (Thermo Fisher Scientific®). Gene expression was normalized to β-actin gene expression.
# For spontaneous metastasis assays using human breast cancer cells, MDA-MB-231, SkBr3 or MDA-MB-436 cells were prepared in medium containing 10% growth factor-reduced Matrigel (Corning®, cat #734-11-01). Five weeks-old female Rj:NMRI-Foxnlnu/nu mice (Janvier) were injected with 10^6 cancer cells in 100 μL of solution in the left second mammary fat pad. After tumor take (72 h), mice were daily treated ±20 mg/Kg MitoQ by oral gavage. Tumor size was measured once per week with an electronic caliper. Four weeks after treatment initiation, primary tumors were surgically removed and processed for RT-qPCR. Tumor recurrence was monitored until recurred tumors in the vehicle group reached about […], i.e. 24 days after surgery. At this time point, mice were sacrificed and their lungs collected and fixed in PFA 4% for immunocytochemistry.
# [3] = tested on: Human MDA-MB-231 breast cancer cells; experiment: Cell viability, crystal violet; format: cell-based; conditions: increasing doses of cisplatin ±100 nM MitoQ, 48 h
# Protocol: […] The solution was carefully removed and plates were washed twice with water. After drying protected by light, cells were resuspended in 50 μl DMSO and the plates were read with a Victor X4 plate reader (Perkin®).
# [4] = tested on: MDA-MB-231 and SkBr3 cells in culture; experiment: RT-qPCR validation of mRNA biomarkers in vitro; format: cell-based, human; conditions: MitoQ 500 nM, 48 h
# Protocol: as §1
# While EMT and sternness markers are usual suspects when testing antimetastatic strategies, it was decided to go deeper in the understanding of the molecular effects of MitoQ, and performed unbiased RNA sequencing (RNAseq) using cells treated for 48 h±MitoQ (500 nM). […] On independent samples upon the same conditions (including |log 2 Fold Change|>1 and P<0.01), RT-qPCR on the two cell lines validated all genes as potential biomarkers of human breast cancer cell response to MitoQ, to the exception of EID1, PEG10, FTH1 and NUPR1 (FIG. 12A-M and Table 7).
# [5] = tested on: MDA-MB-231 human breast cancer cells; experiment: Seahorse oximetry, oxygen consumption rates (OCRs); format: cell-based; conditions: MitoQ 100 nM, 48 h
# Protocol: Oxygen consumption rates (OCRs) were determined on a Seahorse XF96 bioenergetic analyzer using the XF cell Mito stress kit (Agilent Technologies®), according to manufacturer's recommendations. Briefly, MDA-MB-231 (10^4 cells/well), SkBr3 (10^4 cells/well), MDA-MB-436 (10^4 cells/well) or MCF10A (10^5 cells/well) were plated on XF96 culture plates 16 h before experiments in DMEM containing 10% FBS, and treated ±MitoQ for 48 h. On the day of analysis, culture media were replaced by DMEM containing 10 mM glucose, 2 mM glutamine, 1.85 g/L NaCl, 3 mg/L phenol red, pH 7.4. Cells were incubated for 1 h in a CO2-free incubator before analysis. Sequentially, basal OCR was acquired without treatment; ATP-linked OCR after the addition of 1 μM of ATP synthase inhibitor oligomycin; maximal OCR after mitochondrial potential disruption using 1 μM of ionophore carbonyl cyanide-4-(trifluoromethoxy) phenylhydrazone (FCCP); and non-mitochondrial OCR after the addition of 0.5 μM of Complex I inhibitor rotenone together with 0.5 μM of Complex III inhibitor antimycin A. All data were normalized by total protein content (Bio-Rad® Protein Assay; catalogue #5000006) measured right after oximetry. Mitochondrial OCRs (mtOCRs) were calculated by subtracting non-mitochondrial OCRs to the corresponding basal, maximal and ATP-linked OCRs.
structure (smiles),measurement,setting,value
COC1=C(OC)C(=O)C(CCCCCCCCCC[P+](c2ccccc2)(c2ccccc2)c2ccccc2)=C(C)C1=O [MitoQ],mitochondrial superoxide production,[1],not affected
same,tumor samples in which PSAT1 expression was induced,[2],100%
same,PHGDH-1 transcript upregulated in response to MitoQ: Validated in vivo,[2]; tumors resected day +32,+ (Repressed or induced by ≥2-fold with P < 0.01 and MDA-MB-231 primary tumors in mice.)
same,PSAT1 transcript upregulated in response to MitoQ: Validated in vivo,[2]; tumors resected day +32,+ (Repressed or induced by ≥2-fold with P < 0.01 and MDA-MB-231 primary tumors in mice.)
same,SERPINE1 transcript upregulated in response to MitoQ: Validated in vivo,[2]; tumors resected day +32,+ (Repressed or induced by ≥2-fold with P < 0.01 and MDA-MB-231 primary tumors in mice.)
same,SLC7A11 transcript upregulated in response to MitoQ: Validated in vivo,[2]; tumors resected day +32,+ (Repressed or induced by ≥2-fold with P < 0.01 and MDA-MB-231 primary tumors in mice.)
same,TXNRD1 transcript upregulated in response to MitoQ: Validated in vivo,[2]; tumors resected day +32,+ (Repressed or induced by ≥2-fold with P < 0.01 and MDA-MB-231 primary tumors in mice.)
same,fold induction at 20 mg/kg,"[2]; Mus musculus, MDA-MB-231, P<0.01, read-out: fold induction of PHGDH-1, SLC7A11, SERPINE1, TXNRD1 and PSAT1 (each independently)",≥ 2
same,"cancer cell killing activity, cisplatin combined with MitoQ",[3],did not interfere
same,ASNS transcript upregulated in response to MitoQ: Validated in vitro,[4],+ (Repressed or induced by ≥2-fold with P < 0.01 in both MDA-MB-231 and SkBr3 cells in culture.)
same,G6PD transcript upregulated in response to MitoQ: Validated in vitro,[4],+ (Repressed or induced by ≥2-fold with P < 0.01 in both MDA-MB-231 and SkBr3 cells in culture.)
same,PCK2 transcript upregulated in response to MitoQ: Validated in vitro,[4],+ (Repressed or induced by ≥2-fold with P < 0.01 in both MDA-MB-231 and SkBr3 cells in culture.)
same,PHGDH-1 transcript upregulated in response to MitoQ: Validated in vitro,[4],+ (Repressed or induced by ≥2-fold with P < 0.01 in both MDA-MB-231 and SkBr3 cells in culture.)
same,PSAT1 transcript upregulated in response to MitoQ: Validated in vitro,[4],+ (Repressed or induced by ≥2-fold with P < 0.01 in both MDA-MB-231 and SkBr3 cells in culture.)
same,SERPINE1 transcript upregulated in response to MitoQ: Validated in vitro,[4],+ (Repressed or induced by ≥2-fold with P < 0.01 in both MDA-MB-231 and SkBr3 cells in culture.)
same,SLC6A9 transcript upregulated in response to MitoQ: Validated in vitro,[4],+ (Repressed or induced by ≥2-fold with P < 0.01 in both MDA-MB-231 and SkBr3 cells in culture.)
same,SLC7A11 transcript upregulated in response to MitoQ: Validated in vitro,[4],+ (Repressed or induced by ≥2-fold with P < 0.01 in both MDA-MB-231 and SkBr3 cells in culture.)
same,TXNRD1 transcript upregulated in response to MitoQ: Validated in vitro,[4],+ (Repressed or induced by ≥2-fold with P < 0.01 in both MDA-MB-231 and SkBr3 cells in culture.)
same,"basal, maximal and ATP-linked oxygen consumption rates (OCRs)",[5],decreased
